# Assay results: ChEMBL document CHEMBL1201862, “PubChem BioAssay data set” (2004)
# The source made the active and inactive calls.
# Experiments:
# [1] = biological target: Ras and Rab interactor 1/Tyrosine-protein kinase ABL1 (Homo sapiens, UniProt P00519+Q13671); format: functional;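 also: biochemical TR-FRET dose-response test measuring inhibition of binding between Rin1 and Abl proteins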
# [2] = biological target: Photoreceptor-specific nuclear receptor (Homo sapiens, UniProt Q9Y5X4); format: functional, cell-based;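 also: CHO-S cells with Gal4-NCOR and VP16-NR2E3 two-hybrid luciferase reporter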
# [3] = THP-1 cell cytotoxicity, dose response, cytotoxicity control for Vif-APOBEC3G degradation inhibitor project, THP-1 cells (AID 1117359); format: functional; conditions: Human immunodeficiency virus 1, THP-1
# [4] = biological target: T1, Probable nicotinate-nucleotide adenylyltransferase (Staphylococcus aureus (strain N315), UniProt P65502); format: functional, Staphylococcus aureus subsp. aureus N315;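 as to IC50 Mean: confirmatory dose-response retesting of NadD inhibitor hits first found in an ultra-high-throughput screen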
# [5] = biological target: T1, Probable nicotinate-nucleotide adenylyltransferase; format: functional, Staphylococcus aureus subsp. aureus N315; conditions: read-out: IC50_Mean
# [6] = biological target: T2, Small ubiquitin-related modifier 1 (Homo sapiens, UniProt P63165); assay: inhibitors of SUMO1 peptide binding, dose response, biochemical, fluorescence polarization, uHTS hits (AID 624382); format: functional; conditions: read-out: IC50_Mean
# [7] = Luminescence Cell-Based Dose Retest to Confirm Inhibitors of Cancer Stem Cells. [Related pubchem assays (depositor defined):AID2717, AID2721]; format: functional; conditions: Homo sapiens
# [8] = biological target: T2, Small ubiquitin-related modifier 1; assay: inhibitors of SUMO1 partner interactions, dose response, biochemical, FRET (AID 624383); format: functional; conditions: read-out: IC50_Mean
# [9] = biological target: T3, Low molecular weight phosphotyrosine protein phosphatase (Homo sapiens, UniProt P24666); format: functional; conditions: read-out: IC50_Mean
# T3 sequence (P24666 whole entry): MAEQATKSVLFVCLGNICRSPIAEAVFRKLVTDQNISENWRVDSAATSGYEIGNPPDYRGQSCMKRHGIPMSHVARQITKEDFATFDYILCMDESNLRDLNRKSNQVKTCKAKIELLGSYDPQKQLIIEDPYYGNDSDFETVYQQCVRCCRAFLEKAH
# [10] = biological target: T4, Adenosylmethionine-8-amino-7-oxononanoate aminotransferase (Mycobacterium tuberculosis, UniProt P9WQ81); assay: Mycobacterium tuberculosis BioA enzyme inhibitor Measured in Biochemical System Using Plate Reader - 2163-02_Inhibitor_Dose_CherryPick_Activity.; format: functional, Mycobacterium tuberculosis UT205
# T4 sequence (P9WQ81 whole entry): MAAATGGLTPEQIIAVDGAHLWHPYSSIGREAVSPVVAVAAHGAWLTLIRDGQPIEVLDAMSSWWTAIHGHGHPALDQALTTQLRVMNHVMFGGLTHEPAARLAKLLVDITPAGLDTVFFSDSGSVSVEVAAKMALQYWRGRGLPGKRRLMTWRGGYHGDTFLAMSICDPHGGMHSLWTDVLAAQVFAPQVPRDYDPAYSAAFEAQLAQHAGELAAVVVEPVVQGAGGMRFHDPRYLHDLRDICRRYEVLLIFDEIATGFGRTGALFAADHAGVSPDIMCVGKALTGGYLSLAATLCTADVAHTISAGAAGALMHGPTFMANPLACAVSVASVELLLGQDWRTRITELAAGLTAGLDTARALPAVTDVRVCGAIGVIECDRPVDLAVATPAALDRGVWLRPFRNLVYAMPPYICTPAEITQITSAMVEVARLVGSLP
# [11] = biological target: T5, Replicative DNA helicase DnaB (Mycobacterium tuberculosis, UniProt P9WMR3); assay: DnaB intein splicing inhibitors, dose response, biochemical, cell-free fluorescence (AID 449749); format: functional
# T5 sequence (P9WMR3 whole entry): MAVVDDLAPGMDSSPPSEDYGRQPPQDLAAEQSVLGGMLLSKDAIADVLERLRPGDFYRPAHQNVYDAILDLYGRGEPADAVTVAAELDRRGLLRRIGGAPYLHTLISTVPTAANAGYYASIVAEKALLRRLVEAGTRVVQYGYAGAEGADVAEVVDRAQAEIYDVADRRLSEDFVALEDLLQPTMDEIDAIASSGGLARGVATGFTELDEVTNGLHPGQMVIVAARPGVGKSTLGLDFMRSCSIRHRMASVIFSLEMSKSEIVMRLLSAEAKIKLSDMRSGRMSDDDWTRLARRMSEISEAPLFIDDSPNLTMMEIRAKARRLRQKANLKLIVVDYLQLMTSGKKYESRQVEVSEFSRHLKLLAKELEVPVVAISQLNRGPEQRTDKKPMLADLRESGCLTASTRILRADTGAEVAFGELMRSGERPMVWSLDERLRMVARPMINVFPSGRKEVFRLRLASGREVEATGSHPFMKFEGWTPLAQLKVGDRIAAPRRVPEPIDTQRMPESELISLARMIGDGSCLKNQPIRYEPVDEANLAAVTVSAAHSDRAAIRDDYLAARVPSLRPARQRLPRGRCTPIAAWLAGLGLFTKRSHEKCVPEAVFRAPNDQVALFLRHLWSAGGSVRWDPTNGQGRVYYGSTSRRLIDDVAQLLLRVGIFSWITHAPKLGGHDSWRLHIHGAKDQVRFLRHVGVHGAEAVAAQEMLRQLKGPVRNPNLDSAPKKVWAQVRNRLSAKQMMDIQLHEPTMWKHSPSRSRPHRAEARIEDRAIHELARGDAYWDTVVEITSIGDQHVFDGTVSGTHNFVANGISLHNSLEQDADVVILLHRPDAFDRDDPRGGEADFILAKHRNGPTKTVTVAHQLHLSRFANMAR
# Protein RecA = biological target: T6, Protein RecA (Mycobacterium tuberculosis, UniProt P9WHJ3); assay: Fluorescence Cell-Free Homogeneous Dose Retest to Identify Inhibitors of RecA-Intein Splicing Activity. [Related pubchem assays (depositor defined):AID2097, AID2223, AID489010, AID492950]; format: functional
# T6 sequence (P9WHJ3 whole entry): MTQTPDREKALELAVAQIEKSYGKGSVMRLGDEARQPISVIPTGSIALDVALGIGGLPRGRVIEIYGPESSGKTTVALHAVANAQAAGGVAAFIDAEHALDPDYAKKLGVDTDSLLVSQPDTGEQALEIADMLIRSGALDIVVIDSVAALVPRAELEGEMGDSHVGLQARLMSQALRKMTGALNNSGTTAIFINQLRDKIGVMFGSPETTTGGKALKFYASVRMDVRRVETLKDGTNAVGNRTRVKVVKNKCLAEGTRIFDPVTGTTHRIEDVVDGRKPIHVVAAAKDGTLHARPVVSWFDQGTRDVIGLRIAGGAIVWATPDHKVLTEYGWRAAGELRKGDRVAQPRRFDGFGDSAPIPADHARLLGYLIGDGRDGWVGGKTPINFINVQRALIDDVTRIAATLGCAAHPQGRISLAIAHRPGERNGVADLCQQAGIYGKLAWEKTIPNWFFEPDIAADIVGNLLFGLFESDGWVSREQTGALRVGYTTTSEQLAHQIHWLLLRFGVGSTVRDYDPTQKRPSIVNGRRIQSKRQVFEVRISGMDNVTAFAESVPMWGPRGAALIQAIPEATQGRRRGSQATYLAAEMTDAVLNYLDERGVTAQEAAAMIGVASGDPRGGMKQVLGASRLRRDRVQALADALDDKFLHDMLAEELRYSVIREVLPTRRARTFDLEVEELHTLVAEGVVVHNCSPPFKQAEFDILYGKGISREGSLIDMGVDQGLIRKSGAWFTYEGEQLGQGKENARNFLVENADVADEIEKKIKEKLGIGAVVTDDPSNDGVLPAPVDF
# Vero = Vero cell cytotoxicity, cytotoxicity control for flavivirus capping enzyme inhibitors (AID 588742); format: functional; conditions: Chlorocebus sabaeus
# Genome polyprotein = Genome polyprotein (dengue virus type 2, UniProt P29990); assay: Dengue-2 NS5 methyltransferase inhibitors, primary screen, biochemical, confirmation dose response (AID 588689); format: functional
# [12] = biological target: T7, RNA-binding protein pos-1 (Caenorhabditis elegans, UniProt G5EF15); assay: inhibitors of POS-1/mex-3 RNA binding, dose response, biochemical, fluorescence polarization (AID 1964);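 also: purified POS-1 fused to maltose binding protein made in E. coli; potency of compounds blocking POS-1 binding to fluorescent RNA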
# T7 sequence (G5EF15 whole entry): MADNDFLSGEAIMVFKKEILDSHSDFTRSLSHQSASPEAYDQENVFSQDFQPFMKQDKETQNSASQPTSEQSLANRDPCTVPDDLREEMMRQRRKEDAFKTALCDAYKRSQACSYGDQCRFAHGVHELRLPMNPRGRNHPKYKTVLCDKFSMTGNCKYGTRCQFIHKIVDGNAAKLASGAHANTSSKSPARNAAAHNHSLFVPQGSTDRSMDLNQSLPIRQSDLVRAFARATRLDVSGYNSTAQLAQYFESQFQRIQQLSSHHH
# [13] = biological target: T8, Zinc finger protein mex-5 (Caenorhabditis elegans, UniProt Q9XUB2); assay: MEX-5/TCR-2 RNA interaction inhibitors, dose response, biochemical, C. elegans, fluorescence polarization (AID 1960)
# T8 sequence (Q9XUB2 whole entry): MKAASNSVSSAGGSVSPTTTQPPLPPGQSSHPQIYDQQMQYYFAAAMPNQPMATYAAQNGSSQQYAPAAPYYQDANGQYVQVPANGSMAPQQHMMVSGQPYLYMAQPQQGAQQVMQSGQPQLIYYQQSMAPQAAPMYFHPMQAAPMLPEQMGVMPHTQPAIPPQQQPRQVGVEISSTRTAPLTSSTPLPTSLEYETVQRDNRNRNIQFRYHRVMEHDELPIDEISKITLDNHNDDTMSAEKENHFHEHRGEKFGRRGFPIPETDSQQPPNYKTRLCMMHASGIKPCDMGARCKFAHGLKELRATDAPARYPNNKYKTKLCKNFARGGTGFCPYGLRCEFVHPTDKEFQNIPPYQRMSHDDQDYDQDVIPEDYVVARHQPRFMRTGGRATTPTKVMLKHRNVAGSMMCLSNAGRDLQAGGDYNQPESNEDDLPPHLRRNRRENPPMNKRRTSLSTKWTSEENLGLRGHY
# [14] = biological target: T9, Long-chain-fatty-acid--AMP ligase FadD28 (Mycobacterium tuberculosis, UniProt P9WQ59); assay: Fluorescence polarization aasay to screen for inhibitors that compete for the binding of FadD28 to a bisubstrate Measured in Biochemical System Using Plate Reader - 2147-01_Inhibitor_Dose_CherryPick_Activity.; format: functional, Mycobacterium tuberculosis H37Rv
# T9 sequence (P9WQ59 whole entry): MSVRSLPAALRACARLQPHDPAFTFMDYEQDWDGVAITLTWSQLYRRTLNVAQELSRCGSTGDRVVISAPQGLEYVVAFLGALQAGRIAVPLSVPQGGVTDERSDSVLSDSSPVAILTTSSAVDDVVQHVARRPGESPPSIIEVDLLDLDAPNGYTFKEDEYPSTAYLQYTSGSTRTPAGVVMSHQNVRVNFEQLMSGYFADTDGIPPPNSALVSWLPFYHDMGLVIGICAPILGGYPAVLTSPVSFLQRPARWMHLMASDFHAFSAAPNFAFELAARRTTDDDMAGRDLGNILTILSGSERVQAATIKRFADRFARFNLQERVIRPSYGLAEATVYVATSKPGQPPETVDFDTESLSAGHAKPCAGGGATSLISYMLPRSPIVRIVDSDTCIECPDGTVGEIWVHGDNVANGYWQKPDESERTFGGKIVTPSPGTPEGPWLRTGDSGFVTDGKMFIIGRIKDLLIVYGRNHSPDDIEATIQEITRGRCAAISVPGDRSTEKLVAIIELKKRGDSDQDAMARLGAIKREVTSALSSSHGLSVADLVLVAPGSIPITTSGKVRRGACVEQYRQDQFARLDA
# [15] = cytotoxicity toward NIH3T3 fibroblasts, dose response, counter-screen, cell-based, ATP luminescence, mouse fibroblasts (AID 2010); format: functional;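 also: cells exposed to compound for about 90 hours before reading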
# [16] = inhibitors of intracellular T. cruzi replication, confirmation, NIH3T3 host cells, beta-gal luminescence (AID 2044); format: functional, cell-based;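 also: intracellular parasites grown in NIH/3T3 mouse fibroblasts as host cells; luminescent beta-galactosidase reporter signal from transgenic T. cruzi replicating inside host cells; inhibitors lower the luminescence signal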
# [17] = THP-1 cell cytotoxicity, dose response, cytotoxicity control for non-replicating M. tuberculosis project (AID 489025); format: functional
# [18] = Vero E6 cell cytotoxicity, dose response, cytotoxicity control for non-replicating M. tuberculosis project, secondary assay (AID 492998); format: functional, VeroE6; conditions: Vero C1008
# [19] = HepG2 cell cytotoxicity, dose response, cytotoxicity control for non-replicating M. tuberculosis project (AID 489018); format: functional; conditions: Mycobacterium tuberculosis
# [20] = HeLa cell cytotoxicity, dose response, cytotoxicity control for MgcRacGAP inhibitor project (AID 624300); format: functional
# T2 sequence (P63165 whole entry): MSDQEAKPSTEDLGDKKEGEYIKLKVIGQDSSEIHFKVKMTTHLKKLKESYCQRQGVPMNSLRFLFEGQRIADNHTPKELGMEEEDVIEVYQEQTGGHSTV
# T1 sequence (P65502 whole entry): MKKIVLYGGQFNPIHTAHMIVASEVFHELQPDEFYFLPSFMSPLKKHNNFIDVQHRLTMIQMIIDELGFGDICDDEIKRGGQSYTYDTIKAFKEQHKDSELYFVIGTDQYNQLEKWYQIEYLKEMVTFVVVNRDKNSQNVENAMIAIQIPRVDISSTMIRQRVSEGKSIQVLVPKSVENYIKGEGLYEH
# Sequence of Photoreceptor-specific nuclear receptor (Q9Y5X4 whole entry, the tested form may be a part): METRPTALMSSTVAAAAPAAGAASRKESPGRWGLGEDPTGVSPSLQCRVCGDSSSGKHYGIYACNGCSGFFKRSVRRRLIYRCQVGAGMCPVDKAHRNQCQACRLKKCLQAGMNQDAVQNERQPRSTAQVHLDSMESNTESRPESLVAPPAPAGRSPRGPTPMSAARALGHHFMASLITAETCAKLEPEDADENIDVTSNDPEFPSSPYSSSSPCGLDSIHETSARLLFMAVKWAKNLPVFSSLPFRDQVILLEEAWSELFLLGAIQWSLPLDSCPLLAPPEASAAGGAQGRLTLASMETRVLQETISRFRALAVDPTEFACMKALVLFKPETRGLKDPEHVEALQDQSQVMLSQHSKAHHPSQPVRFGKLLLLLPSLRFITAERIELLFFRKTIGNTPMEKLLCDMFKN
# Sequence of Ras and Rab interactor 1/Tyrosine-protein kinase ABL1 (P00519 whole entry, the tested form may be a part): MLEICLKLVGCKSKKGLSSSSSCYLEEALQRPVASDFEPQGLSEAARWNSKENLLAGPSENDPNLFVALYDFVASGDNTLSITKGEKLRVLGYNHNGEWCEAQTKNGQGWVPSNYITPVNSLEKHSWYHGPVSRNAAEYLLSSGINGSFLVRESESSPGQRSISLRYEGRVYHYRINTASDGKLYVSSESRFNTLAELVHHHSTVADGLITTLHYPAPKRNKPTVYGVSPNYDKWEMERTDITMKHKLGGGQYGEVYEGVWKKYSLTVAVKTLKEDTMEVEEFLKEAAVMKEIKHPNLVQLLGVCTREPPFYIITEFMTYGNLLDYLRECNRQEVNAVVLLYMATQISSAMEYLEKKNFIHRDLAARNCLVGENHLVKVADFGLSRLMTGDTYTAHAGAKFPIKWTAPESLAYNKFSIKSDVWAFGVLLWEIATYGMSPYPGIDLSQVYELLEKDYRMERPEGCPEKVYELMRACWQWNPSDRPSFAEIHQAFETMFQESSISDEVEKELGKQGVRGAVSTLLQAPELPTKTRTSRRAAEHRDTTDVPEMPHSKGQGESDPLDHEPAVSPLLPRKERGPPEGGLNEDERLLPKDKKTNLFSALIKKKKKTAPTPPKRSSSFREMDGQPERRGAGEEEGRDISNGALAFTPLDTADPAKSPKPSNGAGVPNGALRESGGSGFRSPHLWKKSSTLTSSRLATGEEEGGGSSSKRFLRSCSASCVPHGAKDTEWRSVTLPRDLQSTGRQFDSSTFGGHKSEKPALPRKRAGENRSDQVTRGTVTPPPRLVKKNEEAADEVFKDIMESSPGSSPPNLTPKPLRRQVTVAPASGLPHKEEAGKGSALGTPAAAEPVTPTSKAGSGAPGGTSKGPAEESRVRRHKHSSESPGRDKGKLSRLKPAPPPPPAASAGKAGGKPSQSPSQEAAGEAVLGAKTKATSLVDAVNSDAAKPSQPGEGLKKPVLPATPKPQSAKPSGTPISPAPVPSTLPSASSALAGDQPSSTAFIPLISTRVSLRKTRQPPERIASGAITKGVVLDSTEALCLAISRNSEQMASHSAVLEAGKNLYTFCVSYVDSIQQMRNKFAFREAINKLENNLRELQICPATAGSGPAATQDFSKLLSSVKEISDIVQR
# Sequence of Ras and Rab interactor 1/Tyrosine-protein kinase ABL1 (Q13671 whole entry, the tested form may be a part): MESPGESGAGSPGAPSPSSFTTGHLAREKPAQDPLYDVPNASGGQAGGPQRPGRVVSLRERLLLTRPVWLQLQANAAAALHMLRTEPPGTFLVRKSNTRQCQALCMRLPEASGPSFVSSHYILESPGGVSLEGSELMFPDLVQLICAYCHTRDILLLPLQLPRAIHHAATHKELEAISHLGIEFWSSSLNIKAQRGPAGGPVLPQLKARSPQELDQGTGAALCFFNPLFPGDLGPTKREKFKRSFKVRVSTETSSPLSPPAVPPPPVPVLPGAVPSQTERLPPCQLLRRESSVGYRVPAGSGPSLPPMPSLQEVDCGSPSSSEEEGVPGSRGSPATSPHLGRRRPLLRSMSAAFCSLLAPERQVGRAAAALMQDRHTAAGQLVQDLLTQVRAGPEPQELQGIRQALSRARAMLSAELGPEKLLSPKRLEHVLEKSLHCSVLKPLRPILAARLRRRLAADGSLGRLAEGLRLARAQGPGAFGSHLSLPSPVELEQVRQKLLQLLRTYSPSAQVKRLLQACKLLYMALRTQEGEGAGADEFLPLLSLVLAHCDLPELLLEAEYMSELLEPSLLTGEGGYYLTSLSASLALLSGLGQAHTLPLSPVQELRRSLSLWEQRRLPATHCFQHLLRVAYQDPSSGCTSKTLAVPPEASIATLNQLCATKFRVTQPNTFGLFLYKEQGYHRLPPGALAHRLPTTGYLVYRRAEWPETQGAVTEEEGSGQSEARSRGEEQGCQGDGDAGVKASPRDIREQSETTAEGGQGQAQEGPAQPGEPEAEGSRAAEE
# Sequence of Genome polyprotein (P29990 2492-3391 limits assumed): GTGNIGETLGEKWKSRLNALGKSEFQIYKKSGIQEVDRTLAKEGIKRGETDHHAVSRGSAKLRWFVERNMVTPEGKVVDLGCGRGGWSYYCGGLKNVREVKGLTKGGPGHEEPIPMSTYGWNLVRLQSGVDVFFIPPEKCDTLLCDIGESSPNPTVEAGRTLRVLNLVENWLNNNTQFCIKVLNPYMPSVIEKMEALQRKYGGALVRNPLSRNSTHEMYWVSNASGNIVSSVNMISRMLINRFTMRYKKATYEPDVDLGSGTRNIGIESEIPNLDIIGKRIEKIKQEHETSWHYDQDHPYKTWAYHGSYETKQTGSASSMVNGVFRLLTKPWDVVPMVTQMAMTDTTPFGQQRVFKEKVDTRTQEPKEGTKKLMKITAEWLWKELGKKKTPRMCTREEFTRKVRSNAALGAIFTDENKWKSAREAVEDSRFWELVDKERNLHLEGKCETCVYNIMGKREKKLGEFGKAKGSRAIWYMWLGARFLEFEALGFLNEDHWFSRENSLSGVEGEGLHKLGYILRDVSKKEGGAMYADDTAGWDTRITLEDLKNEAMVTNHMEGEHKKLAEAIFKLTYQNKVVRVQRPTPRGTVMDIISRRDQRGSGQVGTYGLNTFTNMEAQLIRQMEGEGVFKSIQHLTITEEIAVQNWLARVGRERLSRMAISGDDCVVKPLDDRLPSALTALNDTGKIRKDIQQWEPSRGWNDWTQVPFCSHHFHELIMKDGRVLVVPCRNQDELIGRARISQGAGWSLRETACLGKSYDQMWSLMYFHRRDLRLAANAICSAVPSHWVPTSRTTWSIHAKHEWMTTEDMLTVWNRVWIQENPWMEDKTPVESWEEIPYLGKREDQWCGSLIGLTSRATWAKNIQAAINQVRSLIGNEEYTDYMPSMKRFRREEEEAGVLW
structure (smiles),measurement,setting,value
CCOC(=O)c1ccc(NC(=O)NC2CC3CCC(C2)N3)cc1 (stereo unspecified),IC50,[1],31.7 µM (inactive)
c1coc(CNc2ncnc3ccccc23)c1,IC50,[2],4.34 µM (active)
O=C(NC(=S)Nc1cccc(S(=O)(=O)NC2=NCCC2)c1)c1cc(-c2ccco2)nc2ccccc12,CC50,[3],> 40 µM (active)
same,IC50,[4],10.4 µM (active)
same,IC50,[5],35 µM (active)
Cc1ccc([N+](=O)[O-])cc1-c1ccc(/C=C(\C#N)c2[nH]nc(N)c2C#N)o1,IC50,[6],> 66.6 µM (inactive)
same,AC50,[7],2.98 µM (active)
same,IC50,[8],1.74 µM (active)
Clc1ccc(Br)cc1-c1nc(-c2ccncc2)no1,IC50,[9],12.2 µM (active)
CCCc1cc(=O)oc2c3c(cc(OCC(=O)NCCCn4ccnc4)c12)OC(C)(C)CC3,AC50,[10],5.93 µM (active)
CCOC(=O)c1c(NC(=O)/C=C/C(=O)O)sc(C)c1-c1ccc(C)c(C)c1,AC50,[11],8.39 µM (active)
same,EC50,Protein RecA,1.89 µM (active)
same,CC50,Vero,> 40 µM (active)
same,IC50,Genome polyprotein,75.1 µM (active)
Cc1cccc(NC(=O)CN2C(=O)N/C(=C\c3cccn3-c3cccc(C(=O)O)c3)C2=O)c1,EC50,[12],> 300 µM (not active)
same,EC50,[13],> 300 µM (not active)
same,AC50,[14],> 100 µM (inactive)
O=C(Nc1ccc(S(=O)(=O)Nc2nccs2)cc1)c1cc(-c2ccccc2Cl)nc2ccccc12,IC50,[4],6.99 µM (active)
same,IC50,[5],22.2 µM (active)
O=C(Nc1cccc(NC(=O)c2ccc(-c3ccc(Br)cc3)o2)c1)c1ccco1,EC50,[15],> 30 µM (not active)
same,IC50,[6],> 66.6 µM (inactive)
same,EC50,[16],2.73 µM (active)
same,IC50,[8],6.92 µM (active)
COc1cc(CNCCNC(=O)c2nonc2N)ccc1OCc1ccc(Cl)cc1,CC50,[17],24.3 µM (active)
same,CC50,[18],> 20 µM (active)
same,CC50,[19],> 20 µM (active)
same,CC50,[20],75.4 µM (active)
Cc1cnc(NC(=O)C2CC(=O)N(c3ccc4c(c3)OCCO4)C2)s1 (stereo unspecified),IC50,[2],7.49 µM (active)
O=C(Nc1ccn([C@H]2CC[C@@H](CO)O2)c(=O)n1)c1ccccc1,IC50,[1],66.6 µM (inactive)
O=C(c1cccc(F)c1)N1CC[C@@H]2[C@H](CO)Nc3ccc(-c4cccc(F)c4)cc3[C@@H]21,AC50,[10],0.185 µM (active)
C[C@@H]1CN([C@H](C)CO)C(=O)Cc2cc(NC(=O)Cn3cnnn3)ccc2O[C@H]1CN(C)Cc1ccc2c(c1)OCO2,AC50,[10],7.3 µM (active)
